# From patent publication US20250019376A1, “CHROMANE AMIDINE MONOBACTAM ANTIBIOTICS” (priority 2021, published 2025)
# Legend:
# Settings in all cases: lowest concentration inhibiting 95% of growth (OD600); with BLi relebactam 4 μg/mL; 22 hours, 35±2° C.
# [1] = tested on: Klebsiella pneumoniae expressing KPC-1 (CL6569); test: Growth inhibitory concentration (OD600), K. pneumoniae CL6569; format: cell-based
# Procedure: (§1) The concentrations of compounds required to inhibit the growth of various strains of bacteria were determined in an assay that assessed bacterial growth by measuring optical density at 600 nm (OD600). The bacterial strains tested included the clinical strains Escherichia co/i expressing NDM-1 (CLB30016), Klebsiella pneumoniae expressing KPC-1 (CL6569), Acinetobacter baumannii expressing TEM-1, AmpC, and Oxa-24/40 (CL6188) and Pseudomonas aeruginosa expressing AmpC (CL5701). All compounds were tested in the presence of a f3 lactamase inhibitor (BLi, Relebactam) in 384-well microplates.
# (§2) The clinical strains were stored as frozen single use stocks, thawed and diluted into 1.1× cation-adjusted Mueller-Hinton 11 broth to achieve approximately 2×10^5 CFU/mL. Test compounds were dissolved in DMSO and diluted 1:50 in the assay, resulting in a final concentration range of 100 μM to 0.098 μM. On the day of the assay, 1 μL of test compound was added to the plate followed by 4 μL of 50 μg/mL BLi in MOPS buffer and 45 μL of diluted bacteria. Plates were centrifuged at 1000 rpm for 30 seconds, shaken at approximately 800 rpm for 1 minute, and incubated at 35±2° C. for 22 hours. The concentration of BLi used in the assay was 4 μg/mL. At the end of the incubation, absorbance at 600 nm was determined using a spectrophotometer. Inhibition was quantitated by identifying the lowest concentration of test compound that was required to inhibit […] of the growth of the bacteria.
# [2] = tested on: Acinetobacter baumannii expressing TEM-1, AmpC, and Oxa-24/40 (CL6188); format: cell-based
# Procedure: as §1, §2
# [3] = tested on: Escherichia co/i expressing NDM-1 (CLB30016); test: Growth inhibitory concentration (OD600), E. coli CLB30016; format: cell-based, Escherichia coli
# Procedure: as §1, §2
# [4] = tested on: Pseudomonas aeruginosa expressing AmpC (CL5701); test: Growth inhibitory concentration (OD600), P. aeruginosa CL5701; format: cell-based
# Procedure: as §1, §2
smiles,measurement,setting,value
"CC1(C)[C@H](NC(=O)/C(=N\O[C@](C)(C(=O)O)[C@H]2CCc3cc(C(=N)N[C@H]4C[C@@H](N)C4)ccc3O2)c2csc(N)n2)C(=O)N1OS(=O)(=O)O [Compound 7, (S)-2-((R)-6-(N-((1 s,3 S)-3-aminocyclobutyl)carbamimidoyl)chroman-2-yl)-2-((((Z)-1-(2-aminothiazol-4-yl)-2-(((S)-2,2-dimenthyl-4-oxo-1-(sulfooxy)azetidin-3-yl)amino)-2-oxoethylidene)amino)oxy)propanoic acid]",KP_CL6569 MITC95,[1],0.3906 µM
same,AB_CL6188 MITC95,[2],5.729 µM
same,EC_CLB30016 MITC95,[3],4.688 µM
"CC1(C)[C@H](NC(=O)/C(=N\O[C@](C)(C(=O)O)[C@H]2CCc3cc(C(=N)N[C@H]4C[C@]5(CCNC5)C4)ccc3O2)c2csc(N)n2)C(=O)N1OS(=O)(=O)O [Compound 22, (S)-2-((R)-6-(N-((2r,4S)-6-azaspiro[3.4]octan-2-yl)carbamimidoyl)chroman-2-yl)-2-((((Z)-1-(2-aminothiazol-4-yl)-2-(((S)-2,2-dimethyl-4-oxo-1-(sulfooxy)azetidin-3-yl)amino)-2-oxoethylidene)amino)oxy)propanoic acid]",KP_CL6569 MITC95,[1],0.3906 µM
same,AB_CL6188 MITC95,[2],3.125 µM
same,PA_CL5701 MITC95,[4],1.563 µM
same,EC_CLB30016 MITC95,[3],3.125 µM
"CC1(C)[C@H](NC(=O)/C(=N\O[C@](C)(C(=O)O)[C@H]2CCc3cc(C(=N)N[C@H]4C[C@@]5(CCNC5)C4)ccc3O2)c2csc(N)n2)C(=O)N1OS(=O)(=O)O [Compound 23, (S)-2-((R)-6-(N-((2s,4R)-6-azaspiro[3.4]octan-2-yl)carbamimidoyl)chroman-2-yl)-2-((((Z)-1-(2-aminothiazol-4-yl)-2-(((S)-2,2-dimethyl-4-oxo-1-(sulfooxy)azetidin-3-yl)amino)-2-oxoethylidene)amino)oxy)propanoic acid]",KP_CL6569 MITC95,[1],0.7813 µM
same,AB_CL6188 MITC95,[2],6.25 µM
same,EC_CLB30016 MITC95,[3],6.25 µM
"CC1(C)[C@H](NC(=O)/C(=N\O[C@](C)(C(=O)O)[C@H]2CCc3cc(C(=N)NC4CC5(CC(N)C5)C4)ccc3O2)c2csc(N)n2)C(=O)N1OS(=O)(=O)O (stereo partly drawn) [Compound 61, (S)-2-((R)-6-(N-((2R,4r,6R)-6-aminospiro[3.3]heptan-2-yl)carbamimidoyl)chroman-2-yl)-2-((((Z)-1-(2-aminothiazol-4-yl)-2-(((S)-2,2-dimethyl-4-oxo-1-(sulfooxy)azetidin-3-yl)amino)-2-oxoethylidene)amino)oxy)propanoic acid]",KP_CL6569 MITC95,[1],0.3906 µM
same,AB_CL6188 MITC95,[2],6.25 µM
same,PA_CL5701 MITC95,[4],1.563 µM
"COCC[C@]1(N)CC[C@H](NC(=N)c2ccc3c(c2)CC[C@H]([C@](C)(O/N=C(\C(=O)N[C@@H]2C(=O)N(OS(=O)(=O)O)C2(C)C)c2csc(N)n2)C(=O)O)O3)CC1 [Compound 64, (S)-2-((R)-6-(N-((1r,4R)-4-amino-4-(2-methoxyethyl)cyclohexyl)carbamimidoyl)chroman-2-yl)-2-((((Z)-1-(2-aminothiazol-4-yl)-2-(((S)-2,2-dimethyl-4-oxo-1-(sulfooxy)azetidin-3-yl)amino)-2-oxoethylidene)amino)oxy)propanoic acid]",KP_CL6569 MITC95,[1],0.7813 µM
same,AB_CL6188 MITC95,[2],6.25 µM
same,PA_CL5701 MITC95,[4],3.125 µM
"CC1(C)[C@H](NC(=O)/C(=N\O[C@](C)(C(=O)O)[C@H]2CCc3cc(C(=N)NC4CCC(N)(CO)CC4)ccc3O2)c2csc(N)n2)C(=O)N1OS(=O)(=O)O (stereo partly drawn) [Compound 70, (S)-2-((R)-6-(N-((1s,4S)-4-amino-4-(hydroxymethyl)cyclohexyl)carbamimidoyl)chroman-2-yl)-2-((((Z)-1-(2-aminothiazol-4-yl)-2-(((S)-2,2-dimethyl-4-oxo-1-(sulfooxy)azetidin-3-yl)amino)-2-oxoethylidene)amino)oxy)propanoic acid]",KP_CL6569 MITC95,[1],0.293 µM
same,AB_CL6188 MITC95,[2],4.688 µM
"CC1(C)[C@H](NC(=O)/C(=N\O[C@](C)(C(=O)O)[C@H]2CCc3cc(C(=N)NC4CC(N)(C[C@H](O)CO)C4)ccc3O2)c2csc(N)n2)C(=O)N1OS(=O)(=O)O (stereo partly drawn) [Compound 94, (S)-2-((R)-6-(N-((1S,3R)-3-amino-3-((S)-2,3-dihydroxypropyl)cyclobutyl)carbamimidoyl)chroman-2-yl)-2-((((Z)-1-(2-aminothiazol-4-yl)-2-(((S)-2,2-dimethyl-4-oxo-1-(sulfooxy)azetidin-3-yl)amino)-2-oxoethylidene)amino)oxy)propanoic acid]",KP_CL6569 MITC95,[1],0.3906 µM
same,AB_CL6188 MITC95,[2],6.25 µM
same,EC_CLB30016 MITC95,[3],3.125 µM
"CC1(C)[C@H](NC(=O)/C(=N\O[C@](C)(C(=O)O)[C@H]2CCc3cc(C(=N)N[C@H]4C[C@@](N)(C[C@@H](O)CO)C4)ccc3O2)c2csc(N)n2)C(=O)N1OS(=O)(=O)O [Compound 95, (S)-2-((R)-6-(N-((1R,3R)-3-amino-3-((R)-2,3-dihydroxypropyl)cyclobutyl)carbamimidoyl)chroman-2-yl)-2-((((Z)-1-(2-aminothiazol-4-yl)-2-(((S)-2,2-dimethyl-4-oxo-1-(sulfooxy)azetidin-3-yl)amino)-2-oxoethylidene)amino)oxy)propanoic acid]",KP_CL6569 MITC95,[1],0.3906 µM
same,AB_CL6188 MITC95,[2],6.25 µM
same,EC_CLB30016 MITC95,[3],6.25 µM
"COCc1c(C(=N)N[C@H]2C[C@@H](N)C2)ccc2c1CC[C@H]([C@](C)(O/N=C(\C(=O)N[C@@H]1C(=O)N(OS(=O)(=O)O)C1(C)C)c1csc(N)n1)C(=O)O)O2 [Compound 124, (S)-2-((R)-6-(N-((1s,3S)-3-aminocyclobutyl)carbamimidoyl)-5-(methoxymethyl)chroman-2-yl)-2-((((Z)-1-(2-aminothiazol-4-yl)-2-(((S)-2,2-dimethyl-4-oxo-1-(sulfooxy)azetidin-3-yl)amino)-2-oxoethylidene)amino)oxy)propanoic acid]",KP_CL6569 MITC95,[1],1.563 µM
same,AB_CL6188 MITC95,[2],12.5 µM
same,EC_CLB30016 MITC95,[3],50 µM
"COC[C@]1(NC(=N)c2ccc3c(c2)CC[C@H]([C@](C)(O/N=C(\C(=O)N[C@@H]2C(=O)N(OS(=O)(=O)O)C2(C)C)c2csc(N)n2)C(=O)O)O3)CC[C@@H](N)CC1 [Compound 126, (S)-2-((R)-6-(N-((1s,4S)-4-amino-1-(methoxymethyl)cyclohexyl)carbamimidoyl)chroman-2-yl)-2-((((Z)-1-(2-aminothiazol-4-yl)-2-(((S)-2,2-dimethyl-4-oxo-1-(sulfooxy)azetidin-3-yl)amino)-2-oxoethylidene)amino)oxy)propanoic acid]",KP_CL6569 MITC95,[1],1.563 µM
same,AB_CL6188 MITC95,[2],12.5 µM
same,EC_CLB30016 MITC95,[3],25 µM
"COC[C@]1(NC(=N)c2ccc3c(c2)CC[C@H]([C@](C)(O/N=C(\C(=O)N[C@@H]2C(=O)N(OS(=O)(=O)O)C2(C)C)c2csc(N)n2)C(=O)O)O3)CC[C@H](N)CC1 [Compound 127, (S)-2-((R)-6-(N-((1r,4R)-4-amino-1-(methoxymethyl)cyclohexyl)carbamimidoyl)chroman-2-yl)-2-((((Z)-1-(2-aminothiazol-4-yl)-2-(((S)-2,2-dimethyl-4-oxo-1-(sulfooxy)azetidin-3-yl)amino)-2-oxoethylidene)amino)oxy)propanoic acid]",KP_CL6569 MITC95,[1],0.7813 µM
same,AB_CL6188 MITC95,[2],12.5 µM
same,EC_CLB30016 MITC95,[3],6.25 µM
"CC1(C)[C@H](NC(=O)/C(=N\O[C@](C)(C(=O)O)[C@H]2CCc3cc(C(=N)N[C@]4(C)CC[C@](N)(CO)CC4)ccc3O2)c2csc(N)n2)C(=O)N1OS(=O)(=O)O [Compound 135, (S)-2-((R)-6-(N-((1r,4R)-4-amino-4-(hydroxymethyl)-1-methylcyclohexyl)-carbamimidoyl)chroman-2-yl)-2-((((Z)-1-(2-aminothiazol-4-yl)-2-(((S)-2,2-dimethyl-4-oxo-1-(sulfooxy)azetidin-3-yl)amino)-2-oxoethylidene)amino)oxy)propanoic acid]",KP_CL6569 MITC95,[1],0.7813 µM
same,AB_CL6188 MITC95,[2],12.5 µM
same,PA_CL5701 MITC95,[4],3.125 µM
"CC1(C)[C@H](NC(=O)/C(=N\O[C@](C)(C(=O)O)[C@H]2CCc3cc(C(=N)N[C@H]4C[C@H]5CC[C@@H](C4)N5)ccc3O2)c2csc(N)n2)C(=O)N1OS(=O)(=O)O [Compound 136, (S)-2-((R)-6-(N-((1R,3r,5S)-8-azabicyclo[3.2.1]octan-3-yl)carbamimidoyl)chroman-2-yl)-2-((((Z)-1-(2-aminothiazol-4-yl)-2-(((S)-2,2-dimethyl-4-oxo-1-(sulfooxy)azetidin-3-yl)amino)-2-oxoethylidene)amino)oxy)propanoic acid]",KP_CL6569 MITC95,[1],0.7813 µM
same,AB_CL6188 MITC95,[2],6.25 µM
same,PA_CL5701 MITC95,[4],1.563 µM
